Source: patent US7485669B2, “Blockade of sodium channels by phenol derivatives” (B. Braun Melsungen AG, priority 2000, dated 2009)
Like-named read-outs stand apart in the source and are kept apart here.

Assays:
[1] = biological target: heterologously expressed muscle sodium channels (Homo sapiens, UniProt P35499); conditions: −100 mV; Fan et al. 1996; read-out: IC50 for block of heterologously expressed muscle sodium channels at −100 mV; cited from earlier work
[2] = biological target: T1, human skeletal muscle sodium channels (Homo sapiens, UniProt P35499); test: Whole-cell voltage-clamp of heterologously expressed human skeletal muscle sodium channels in HEK 293 cells; format: cell-based; conditions: for time constant of channel inactivation τh: 40 ms steps −100 mV to 0 mV, control 0.43±0.08 ms; for frequency-dependent block: additional fall relative to the first pulse: 100 Hz train, −100 mV to 0 mV
T1 construct: expressed in transfected cells
Description: The sodium channel blocking potency effects of different phenol derivatives with methyl and halogen substituents have been studied on heterologously expressed human skeletal muscle sodium channels. The phenol derivatives encompassed by formula (I) are either commercially available or can be synthesized by conventional standard laboratory methods.
Wild type α-subunits of human muscle sodium channels were heterologously expressed in human embryonic kidney (HEK 293) cells, a stable cell line since […] (American Tissue Culture Collection CRL 1573). Transfection was performed using calcium phosphate precipitation (Graham & Van der Eb, Virology, 52 (1973) 456-467). Permanent expression was achieved by selection for resistance to the aminoglycoside antibiotic geneticin G418 (Life Technology, Eggenstein, Germany) (Mitotic et al., J. Physiol., 478 (1994) 395-402). Successful channel expression was verified electrophysiologically. The clone has been used in several investigations (Haeseler et al.,Br. J. Pharmacol., 128 (1999) 1259-67; Haeseler et al., Br. J. Pharmacol. 130 (2000) 1321-1330; Mitrovic et al., ibid.).
3,5-dimethyl-4-chlorophenol (according to the invention) and 3-methylphenol (not according to the invention) were purchased from Sigma Chemicals, Deisenhofen, Germany; 4-chloro-2-methylphenol (not according to the invention) and 4-chlorophenol (not according to the invention) were from FLUKA, Deisenhofen, Germany. 3,5-Dimethyl-4-chlorophenol was prepared as a 1 M stock solution in methanol; 4-chloro-2-methylphenol, 4-chlorophenol, and 3-methylphenol were dissolved directly in the bath solution immediately before the experiments. Concentrations were calculated from the amount injected into the glass vials. Drug-containing solutions were protected from light and were vigorously vortexed for 60 min. The solution was applied via a glass polytetrafluoroethylene perfusion system and a stainless steel superfusion pipette. The bath solution contained (mM) NaCl 140, MgCl2 1.0, KCl 4.0, CaCl2 2.0, Hepes 5.0, dextrose 5.0. Patch electrodes contained (mM) […] 130, MgCl2 2.0, EGTA 5.0, Hepes 10. All solutions were adjusted to 290 mosm/l by the addition of mannitol and to pH 7.4 by the addition of CsOH.
Standard whole-cell voltage-clamp experiments (Hamill et al., Pfuegers Arch., 391 (1981) 85-100) were performed at 20° C. Each experiment consisted of test recordings with the drug present at only one concentration, and of drug-free control recordings before and after the test. Each whole-cell patch was exposed to one test concentration only. At least four experiments were performed at each concentration. The amount of the diluent methanol corresponding to the test concentration of 3,5-dimethyl-4-chlorophenol was added to the control solution. Patched cells were lifted into the visible stream of either bath solution or test solution, applied via a two-channel superfusion pipette close to the cell. To ensure adequate adjustment of the application device, one test experiment in distilled water reducing inward sodium current to zero was performed every 6-10 experiments.
For data acquisition and further analysis we used the EPC9 digitally-controlled amplifier in combination with Pulse and Pulse Fit software (HEKA Electronics, Lambrecht, Germany). The EPC9 provides automatic subtraction of capacitive and leakage currents by means of a prepulse protocol. The data were filtered at 10 kHz and digitized at 20 μs per point. Input resistance of the patch pipettes was at 1.8-2.5 MΩ. Only small cells with capacitances of 9-15 pF were used; residual series resistance (after 50% compensation) was 1.2-2.5 MΩ; experiments with a rise in series resistance were rejected. The time constant of the voltage settling within the membrane (residual series resistance×cell capacitance) was less than 35 μs. […]

[3] = IC50 for block of inward sodium current at a holding potential of −150 mV, holding potential −150 mV, 10 ms pulse to 0 mV
[4] = IC50 for block of sodium currents on depolarization from -100 mV to 0 mV, holding potential −100 mV, test pulse to 0 mV

T1 sequence (P35499 whole entry): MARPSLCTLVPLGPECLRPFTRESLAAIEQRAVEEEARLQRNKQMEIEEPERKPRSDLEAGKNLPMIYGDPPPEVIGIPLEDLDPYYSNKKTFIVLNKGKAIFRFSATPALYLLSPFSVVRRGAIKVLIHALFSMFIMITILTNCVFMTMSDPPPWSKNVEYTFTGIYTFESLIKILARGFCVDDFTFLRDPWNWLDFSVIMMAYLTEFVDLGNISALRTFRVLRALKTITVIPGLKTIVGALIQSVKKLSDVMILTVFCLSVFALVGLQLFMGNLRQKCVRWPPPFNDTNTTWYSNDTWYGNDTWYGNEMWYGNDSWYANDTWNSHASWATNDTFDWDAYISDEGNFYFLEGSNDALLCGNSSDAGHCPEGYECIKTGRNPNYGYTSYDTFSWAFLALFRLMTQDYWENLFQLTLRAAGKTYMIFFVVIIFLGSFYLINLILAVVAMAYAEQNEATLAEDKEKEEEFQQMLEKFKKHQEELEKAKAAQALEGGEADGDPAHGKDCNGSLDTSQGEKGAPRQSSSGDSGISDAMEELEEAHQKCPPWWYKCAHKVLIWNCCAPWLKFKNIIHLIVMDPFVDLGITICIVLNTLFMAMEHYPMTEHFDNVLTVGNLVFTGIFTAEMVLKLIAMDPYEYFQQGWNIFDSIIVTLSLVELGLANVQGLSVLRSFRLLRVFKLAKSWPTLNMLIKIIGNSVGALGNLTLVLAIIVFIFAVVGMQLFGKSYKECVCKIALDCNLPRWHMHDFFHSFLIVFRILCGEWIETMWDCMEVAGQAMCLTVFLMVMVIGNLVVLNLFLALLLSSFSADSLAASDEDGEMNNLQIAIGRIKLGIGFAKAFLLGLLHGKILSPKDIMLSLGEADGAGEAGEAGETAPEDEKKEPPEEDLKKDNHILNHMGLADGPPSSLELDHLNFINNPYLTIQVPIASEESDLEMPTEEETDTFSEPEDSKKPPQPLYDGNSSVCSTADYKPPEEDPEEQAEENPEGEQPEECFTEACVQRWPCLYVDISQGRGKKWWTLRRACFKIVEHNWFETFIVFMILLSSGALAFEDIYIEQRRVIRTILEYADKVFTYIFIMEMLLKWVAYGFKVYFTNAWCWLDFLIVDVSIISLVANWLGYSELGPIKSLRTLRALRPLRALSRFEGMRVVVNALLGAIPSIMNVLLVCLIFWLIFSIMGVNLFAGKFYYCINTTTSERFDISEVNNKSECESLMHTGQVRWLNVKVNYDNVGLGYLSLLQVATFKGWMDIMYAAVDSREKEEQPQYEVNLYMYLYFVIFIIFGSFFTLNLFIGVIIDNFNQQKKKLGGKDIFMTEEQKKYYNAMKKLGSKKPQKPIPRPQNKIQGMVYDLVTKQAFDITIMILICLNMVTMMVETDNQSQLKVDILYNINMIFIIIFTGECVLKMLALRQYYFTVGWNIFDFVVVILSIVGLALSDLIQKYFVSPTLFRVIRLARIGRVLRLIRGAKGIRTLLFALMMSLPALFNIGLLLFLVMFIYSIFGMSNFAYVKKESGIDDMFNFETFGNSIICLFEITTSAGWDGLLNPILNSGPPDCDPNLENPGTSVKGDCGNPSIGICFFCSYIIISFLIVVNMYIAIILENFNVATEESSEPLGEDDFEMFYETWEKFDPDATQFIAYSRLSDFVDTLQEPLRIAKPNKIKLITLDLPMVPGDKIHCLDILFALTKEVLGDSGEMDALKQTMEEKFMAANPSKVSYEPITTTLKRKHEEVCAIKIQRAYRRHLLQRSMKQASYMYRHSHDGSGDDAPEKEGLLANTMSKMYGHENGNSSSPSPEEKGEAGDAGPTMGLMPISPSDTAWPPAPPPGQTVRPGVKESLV
heterologously expressed muscle sodium channels, sequence (P35499 whole entry): as above

Q: For `CCN(CC)CC(=O)Nc1c(C)cccc1C` [lidocaine, 2-diethylamino-2′,6′-dimethylacetanilide], which IC50 [1] is on record?
A: 500 µM

Q: For `Cc1cc(O)cc(C)c1Cl` [3,5-dimethyl-4-chlorophenol], which “time constant of channel inactivation τh” value ([2]; 50 μM drug) is on record?
A: 0.27 ± 0.02 ms

Q: What about the “frequency-dependent block: additional fall relative to the first pulse” value ([2]; 300 μM drug) of the same molecule?
A: 17±5%

Q: What about the Kd ([2]; derived from drug-induced shifts in steady-state availability curves, read-out: KD for the fast-inactivated state) of the same molecule?
A: 14 µM

Q: And the IC50 ([2]; holding potential −100 mV, test pulse to 0 mV, read-out: IC50 for block of sodium currents on depolarization from -100 mV to 0 mV)?
A: 150 µM

Q: What about the IC50 ([2]; holding potential −150 mV, 10 ms pulse to 0 mV, read-out: IC50 for block of inward sodium current at a holding potential of −150 mV) of the same molecule?
A: 162 µM

Q: For `Cc1cccc(O)c1` [3-methylphenol], which “time constant of channel inactivation τh” value ([2]; 1000 μM drug) is on record?
A: 0.30 ± 0.08 ms

Q: And the “frequency-dependent block: additional fall relative to the first pulse” value ([2]; 3000 μM drug)?
A: 8±2%

Q: And the IC50 [2, 3]?
A: 2400 µM

Q: And the IC50 [2, 4]?
A: 2160 µM

Q: What does the source list for `Oc1ccc(Cl)cc1` [4-chlorophenol]?
A: time constant of channel inactivation τh ([2]; 500 μM drug): 0.23 ± 0.03 ms; frequency-dependent block: additional fall relative to the first pulse ([2]; 1000 μM drug): 13±2%; IC50 [2, 3]: 751 µM; IC50 [2, 4]: 666 µM

Q: Which “time constant of channel inactivation τh” value ([2]; 100 μM drug) does the source give for `Cc1cc(Cl)ccc1O` [4-chloro-2-methylphenol] here?
A: 0.27 ± 0.05 ms

Q: And the “frequency-dependent block: additional fall relative to the first pulse” value ([2]; 500 μM drug)?
A: 16±5%

Q: And the IC50 [2, 3]?
A: 316 µM

Q: What about the IC50 [2, 4] of the same molecule?
A: 268 µM
